The assay addresses IGF-1R (Homo sapiens (Human), UniProt P08069). The assay can be described thus: Example B-1: IGF-1R Assay (PC3 cells, IGF1 stimulation, AlphaLISA). Format: cell-based. Particulars: 200 ng/mL IGF1 stimulation, read-out: Biological Activity against IGF-1R IC50. In outline: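 Readout is AlphaLISA signal from lysed PC3 cells, expressed as % inhibition versus vehicle and EC80 controls and banded by IC50. Before lysis, the cells were starved of serum for 2 h, exposed to 3× serially diluted compound for 2 h, and stimulated for 30 min with 200 ng/mL IGF1 (final).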

Where only a bound is given, the exact number is not on record here.

IGF-1R, sequence (P08069 31-1367): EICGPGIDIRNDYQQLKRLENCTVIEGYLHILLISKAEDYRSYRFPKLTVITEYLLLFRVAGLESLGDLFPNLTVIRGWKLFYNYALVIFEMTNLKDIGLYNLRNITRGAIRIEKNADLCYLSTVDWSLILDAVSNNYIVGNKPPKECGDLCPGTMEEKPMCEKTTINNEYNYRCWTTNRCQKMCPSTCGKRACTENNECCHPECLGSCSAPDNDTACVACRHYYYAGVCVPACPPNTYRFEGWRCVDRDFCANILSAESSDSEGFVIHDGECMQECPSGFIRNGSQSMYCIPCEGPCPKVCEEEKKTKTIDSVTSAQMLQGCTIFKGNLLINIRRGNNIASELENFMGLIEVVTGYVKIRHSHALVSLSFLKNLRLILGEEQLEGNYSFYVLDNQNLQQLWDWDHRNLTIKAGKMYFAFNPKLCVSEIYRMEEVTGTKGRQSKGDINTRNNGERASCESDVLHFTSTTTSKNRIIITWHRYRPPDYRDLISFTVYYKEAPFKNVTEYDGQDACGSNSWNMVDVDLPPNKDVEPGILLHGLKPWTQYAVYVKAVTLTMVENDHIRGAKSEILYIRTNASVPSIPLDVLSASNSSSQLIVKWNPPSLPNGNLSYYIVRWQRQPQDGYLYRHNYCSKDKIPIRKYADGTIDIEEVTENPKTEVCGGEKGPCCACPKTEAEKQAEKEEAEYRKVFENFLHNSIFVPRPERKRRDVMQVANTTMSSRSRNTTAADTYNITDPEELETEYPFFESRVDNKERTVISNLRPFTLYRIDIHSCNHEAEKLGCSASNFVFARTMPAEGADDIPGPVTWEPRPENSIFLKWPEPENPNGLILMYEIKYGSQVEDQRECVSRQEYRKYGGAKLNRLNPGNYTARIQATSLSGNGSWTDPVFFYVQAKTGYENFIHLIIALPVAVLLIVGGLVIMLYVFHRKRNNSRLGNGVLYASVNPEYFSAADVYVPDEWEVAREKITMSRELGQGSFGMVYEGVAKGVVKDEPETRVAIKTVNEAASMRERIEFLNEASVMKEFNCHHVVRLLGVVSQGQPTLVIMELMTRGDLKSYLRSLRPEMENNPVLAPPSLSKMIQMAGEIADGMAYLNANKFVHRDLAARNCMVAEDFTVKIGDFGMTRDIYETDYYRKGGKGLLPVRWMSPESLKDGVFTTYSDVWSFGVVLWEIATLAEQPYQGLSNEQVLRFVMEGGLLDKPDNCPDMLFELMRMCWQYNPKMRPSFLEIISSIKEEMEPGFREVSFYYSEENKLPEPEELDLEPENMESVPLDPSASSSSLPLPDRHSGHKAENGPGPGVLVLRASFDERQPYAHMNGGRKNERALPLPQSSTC

With `CN1[C@@H]2COC[C@H]1C[C@H](Oc1ccc(Nc3nccc(Nc4cnc5ccccc5c4)n3)cc1)C2` [Compound 30, 2-(p-{(1R,5S,7s)-9-methyl-3-oxa-9-azabicyclo[3.3.1]non-7-yloxy}phenylamino)-4-(3-quinolylamino)pyrimidine], the IC50 was not above 500 nM.

For the compound `COc1cc(Nc2nccc(Nc3cnc4c(OC)cccc4c3)n2)ccc1O[C@H]1C[C@@H](N(C)C)C1` [Compound 312, 4-(8-methoxy-3-quinolylamino)-2-{3-methoxy-4-[(1s,3s)-3-(dimethylamino)cyclobutoxy]phenylamino}pyrimidine], the IC50 is not above 500 nM.

Turning to `COc1cc(Nc2nccc(Nc3cnc4cc(C(F)(F)F)ccc4c3)n2)ccc1O[C@H]1C[C@H](N(C)C)C1` [Compound 341, 2-{3-methoxy-4-[(1r,3r)-3-(dimethylamino)cyclobutoxy]phenylamino}-4-[7-(trifluoromethyl)-3-quinolylamino]pyrimidine], the IC50 was in the range of 500 to 2000 nM.

Regarding `c1ccc2ncc(Nc3ccnc(Nc4ccc(OCCCN5CCCCC5)c(OCC5CCCO5)c4)n3)cc2c1` (stereo not drawn) [Compound 402, 2-{4-(3-piperidinopropoxy)-3-[(tetrahydro-2-furyl)methoxy]phenylamino}-4-(3-quinolylamino)pyrimidine], the IC50 was not above 500 nM.

Regarding `COc1cc(Nc2nccc(Nc3cnc4c(Cl)cccc4c3)n2)ccc1O[C@H]1CC[C@@H](N2CCOCC2)CC1` [Compound 333, 4-(8-chloro-3-quinolylamino)-2-{3-methoxy-4-[(1s,4s)-4-morpholinocyclohexyloxy]phenylamino}pyrimidine], the IC50 is not above 500 nM.

For the compound `c1cc(Nc2cnc3c(c2)C2CCC3C2)nc(Nc2ccc(OCCCN3CCOCC3)cc2)n1` (stereo not drawn) [Compound 372, 4-(3-azatricyclo[6.2.1.0^2,7]undeca-2,4,6-trien-5-ylamino)-2-[p-(3-morpholinopropoxy)phenylamino]pyrimidine], the IC50 was not above 500 nM.

Consider `COc1cc(Nc2nccc(Nc3cnc4c(Cl)cncc4c3)n2)ccc1O[C@H]1C[C@@H](N(C)C)C1` [Compound 84, 4-(8-chloro-1,6-diaza-3-naphthylamino)-2-{3-methoxy-4-[(1s,3s)-3-(dimethylamino)cyclobutoxy]phenylamino}pyrimidine], for which the IC50 was in the range of 500 to 2000 nM.

Take `COc1nc(N2CCN(C)CC2)ccc1Nc1nccc(Nc2cnc3cc(F)c(F)cc3c2)n1` [Compound 472, 4-(6,7-difluoro-3-quinolylamino)-2-[2-methoxy-6-(4-methyl-1-piperazinyl)-3-pyridylamino]pyrimidine]: the IC50 was not above 500 nM.

`COc1cc(Nc2nccc(Nc3cc4ccccc4nc3C)n2)ccc1OCCCN1CCCCC1` [Compound 424, 2-[3-methoxy-4-(3-piperidinopropoxy)phenylamino]-4-(2-methyl-3-quinolylamino)pyrimidine]: the IC50 lay within 500 to 2000 nM.

On to `COc1cc(Nc2nccc(Nc3cnc4c(F)cccc4c3)n2)ccc1OCCCN1CCCCC1` [Compound 96, 4-(8-fluoro-3-quinolylamino)-2-[3-methoxy-4-(3-piperidinopropoxy)phenylamino]pyrimidine], for which the IC50 was not above 500 nM.

For the compound `COc1ccc2cc(Nc3ccnc(Nc4ccc(O[C@@H]5C[C@H]6COC[C@@H](C5)N6C)cc4)n3)cnc2c1` [Compound 345, 2-(p-{(1R,5S,7s)-9-methyl-3-oxa-9-azabicyclo[3.3.1]non-7-yloxy}phenylamino)-4-(7-methoxy-3-quinolylamino)pyrimidine], the half-inhibitory concentration (IC50) fell in the range of 500 to 2000 nM.

`COc1cc(Nc2nccc(Nc3ccc4c(c3)CCN(C)C4)n2)ccc1OCCCN1CCCCC1` [Compound 450, 2-[3-methoxy-4-(3-piperidinopropoxy)phenylamino]-4-(2-methyl-1,2,3,4-tetrahydro-6-isoquinolylamino) pyrimidine]: the IC50 is 500 to 2000 nM.

As to `COc1cc(Nc2nccc(Nc3cc4ccc(F)cc4[nH]c3=O)n2)ccc1O[C@H]1C[C@@H](N(C)C)C1` [Compound 122, 7-fluoro-3-(2-{3-methoxy-4-[(1s,3s)-3-(dimethylamino)cyclobutoxy]phenyl-amino}-4-pyrimidinylamino)-1,2-dihydro-2-quinolinone], the 50% inhibitory concentration (IC50) is not above 500 nM.

Consider `COc1cc(Nc2nccc(Nc3cnc4ccc(Br)cc4c3)n2)ccc1O[C@H]1CC[C@@H](N2CCOCC2)CC1` [Compound 32, 4-(6-bromo-3-quinolylamino)-2-{3-methoxy-4-[(1s,4s)-4-morpholinocyclohexyloxy]phenylamino}pyrimidine], for which the IC50 was not above 500 nM.

With `COc1cc(Nc2nccc(Nc3cnc4cc(F)c(F)cc4c3)n2)cnc1O[C@@H]1C[C@H](N(C)C)C1(C)C` [Compound 254, 2-{6-[(1R,3S)-3-(dimethylamino)-2,2-dimethylcyclobutoxy]-5-methoxy-3-pyridylamino}-4-(6,7-difluoro-3-quinolylamino)pyrimidine], the IC50 is not above 500 nM.

For `COc1cc(Nc2nccc(Nc3cnc4c(c3)OCCO4)n2)ccc1O[C@H]1CC[C@@H](N(C)C)CC1` [Compound 273], the IC50 was not above 500 nM.

“7-(2-{3-methoxy-4-[(1s,3s)-3- (dimethylamino)cyclobutoxy] phenylamino}-4- pyrimidinylamino)-2,2- dimethyl-2,4-dihydro-1-oxa- 4,5-diaza-3-naphthalenone [Compound 288]”: the concentration for half-maximal inhibition (IC50) was in the range of 500 to 2000 nM.

On to `COc1cc(Nc2nccc(Nc3cnc4ccc(F)cc4c3)n2)ccc1OCCCN1CCCCC1` [Compound 427, 4-(6-fluoro-3-quinolylamino)-2-[3-methoxy-4-(3-piperidinopropoxy)phenylamino]pyrimidine], for which the IC50 is not above 500 nM.

On to `COc1ccc2cc(Nc3ccnc(Nc4ccc(O[C@H]5C[C@H](N6CCOCC6)C5)cc4)n3)cnc2c1` [Compound 356, 4-(7-methoxy-3-quinolylamino)-2-{p-[(1r,3r)-3-morpholinocyclobutoxy]phenylamino}pyrimidine], for which the IC50 lay within 500 to 2000 nM.

Regarding `COc1cc(Nc2nccc(Nc3cnc4cc(F)c(F)cc4c3)n2)cnc1N1CCN(CC(F)(F)F)CC1` [Compound 474, 4-(6,7-difluoro-3-quinolylamino)-2-{5-methoxy-6-[4-(2,2,2-trifluoroethyl)-1-piperazinyl]-3-pyridylamino}pyrimidine], the IC50 lay in the range of 500 to 2000 nM.

Regarding `COc1cc(Nc2nccc(Nc3cc4cccc(F)c4nc3O)n2)cnc1OC1CCNCC1` [Compound 261, 8-fluoro-3-{2-[5-methoxy-6-(4-piperidyloxy)-3-pyridylamino]-4-pyrimidinylamino}-2-quinolinol], the IC50 was not above 500 nM.

As for `COc1cc(Nc2nccc(Nc3cnc4ccccc4c3)n2)ccc1O[C@H]1C[C@H](N2CCOCC2)C1` [Compound 22, 2-{3-methoxy-4-[(1r,3r)-3-morpholinocyclobutoxy]phenylamino}-4-(3-quinolylamino)pyrimidine], the IC50 is not above 500 nM.

For `COc1cc(N2CCN(C3COC3)CC2)ncc1Nc1ncc(F)c(Nc2cc3ccccc3nc2C(N)=O)n1` [Compound 495, 3-(5-fluoro-2-{4-methoxy-6-[4-(3-oxetanyl)-1-piperazinyl]-3-pyridylamino}-4-pyrimidinylamino)-2-quinolinecarboxamide], the IC50 is not above 500 nM.

Turning to `CN(C)CC1COc2cc(Nc3nccc(Nc4cc5cc(Cl)ccc5[nH]c4=O)n3)ccc2O1` (stereo not drawn) [Compound 245, 6-chloro-3-(2-{2-[(dimethylamino)methyl]-2,3-dihydro-1,4-benzodioxin-6-ylamino}-4-pyrimidinylamino)-1,2-dihydro-2-quinolinone], the IC50 is not above 500 nM.

(Values after US20250171431A1, “HETEROCYCLIC INHIBITORS OF IGF-1R FOR TREATMENT OF DISEASE” (HORIZON THERAPEUTICS IRELAND DAC, priority 2023, published 2025).)
